# From PMC6704710, “Preclinical evaluation of 3D185, a novel potent inhibitor of FGFR1/2/3 and CSF-1R, in FGFR-dependent and macrophage-dominant cancer models” (Journal of Experimental & Clinical Cancer Research : CR, 2019)
# Legend:
# Assay in all cases: Eurofins kinase panel
# Assay type in all cases: biochemical
# FGFR1(h) = FGFR1(h) (Homo sapiens, UniProt P11362)
# Protocol: (§1) Active FGFR1–4, VEGFR1, KDR, VEGFR3, PDGFRα and PDGFRβ proteins were purchased from Eurofins (Fremont, United States), and kinase activity was assessed using ELISA, as previously reported. […]. Increasing concentrations of ATP were diluted for the kinase reaction in the ATP competition assay. CSF-1R kinase activity was analyzed using the Z’-LYTE™ Kinase Assay Kit (Thermo Fisher, United States). The assay formats are described in the SelectScreen Kinase Profiling Service Zlyte protocol. IC50 values were calculated by dose-response curve fitting using Prism (Graph Pad).
# PhKγ1(h) = target: T1, PhKγ1(h) (Homo sapiens, UniProt Q16816); conditions: read-out: Inhibition rate (%)
# T1 construct: purchased Eurofins (KinaseProfiler)
# T1 sequence (Q16816 whole entry): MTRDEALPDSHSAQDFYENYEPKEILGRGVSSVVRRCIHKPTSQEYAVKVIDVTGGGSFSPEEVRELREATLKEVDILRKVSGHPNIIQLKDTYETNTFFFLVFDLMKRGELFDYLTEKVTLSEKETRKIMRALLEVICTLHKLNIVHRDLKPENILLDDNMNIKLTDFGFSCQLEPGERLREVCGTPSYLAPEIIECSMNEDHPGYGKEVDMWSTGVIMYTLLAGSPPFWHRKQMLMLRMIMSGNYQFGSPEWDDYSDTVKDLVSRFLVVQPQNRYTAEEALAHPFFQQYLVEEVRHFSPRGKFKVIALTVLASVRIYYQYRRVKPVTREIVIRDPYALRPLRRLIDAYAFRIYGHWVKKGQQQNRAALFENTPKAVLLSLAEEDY
# Protocol: as §1
# ZIPK(h) = target: T2, ZIPK(h) (Homo sapiens, UniProt O43293); conditions: read-out: Inhibition rate (%)
# T2 construct: purchased Eurofins (KinaseProfiler)
# T2 sequence (O43293 whole entry): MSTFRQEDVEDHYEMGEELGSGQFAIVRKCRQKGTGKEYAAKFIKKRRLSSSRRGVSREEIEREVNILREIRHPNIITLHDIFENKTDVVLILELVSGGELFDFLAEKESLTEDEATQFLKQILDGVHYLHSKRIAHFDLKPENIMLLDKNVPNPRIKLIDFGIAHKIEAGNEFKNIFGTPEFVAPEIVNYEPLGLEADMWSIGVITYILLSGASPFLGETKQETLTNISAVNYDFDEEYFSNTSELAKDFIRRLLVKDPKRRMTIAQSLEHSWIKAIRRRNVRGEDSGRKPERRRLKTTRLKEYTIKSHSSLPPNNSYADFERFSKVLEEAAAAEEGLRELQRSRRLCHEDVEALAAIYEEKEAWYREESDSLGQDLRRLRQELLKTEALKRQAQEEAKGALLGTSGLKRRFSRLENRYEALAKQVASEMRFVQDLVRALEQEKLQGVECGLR
# Protocol: as §1
# BrSK1(h) = target: T3, BrSK1(h) (Homo sapiens, UniProt Q8TDC3); conditions: read-out: Inhibition rate (%)
# T3 construct: purchased Eurofins (KinaseProfiler)
# T3 sequence (Q8TDC3 1-778): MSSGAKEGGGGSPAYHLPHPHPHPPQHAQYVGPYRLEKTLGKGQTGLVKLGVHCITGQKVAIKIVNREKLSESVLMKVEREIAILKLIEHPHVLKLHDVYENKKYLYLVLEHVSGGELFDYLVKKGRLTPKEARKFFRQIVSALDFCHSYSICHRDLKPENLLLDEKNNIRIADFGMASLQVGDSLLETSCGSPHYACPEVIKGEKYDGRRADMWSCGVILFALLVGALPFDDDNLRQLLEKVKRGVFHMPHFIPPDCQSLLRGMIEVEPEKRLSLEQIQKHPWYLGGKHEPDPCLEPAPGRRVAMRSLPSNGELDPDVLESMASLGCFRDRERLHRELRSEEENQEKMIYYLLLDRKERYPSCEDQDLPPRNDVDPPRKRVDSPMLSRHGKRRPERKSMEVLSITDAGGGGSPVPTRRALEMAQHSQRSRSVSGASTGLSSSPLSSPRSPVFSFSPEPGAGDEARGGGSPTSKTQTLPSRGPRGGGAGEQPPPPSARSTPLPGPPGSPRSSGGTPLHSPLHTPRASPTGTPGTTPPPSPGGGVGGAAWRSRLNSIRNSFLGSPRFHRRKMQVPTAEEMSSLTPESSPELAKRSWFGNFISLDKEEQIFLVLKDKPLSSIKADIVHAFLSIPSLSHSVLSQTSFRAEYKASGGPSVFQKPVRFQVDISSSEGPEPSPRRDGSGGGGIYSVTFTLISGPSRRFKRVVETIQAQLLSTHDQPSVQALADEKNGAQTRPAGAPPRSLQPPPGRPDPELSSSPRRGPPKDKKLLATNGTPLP
# Protocol: as §1
# PDGFRα(V561D)(h) = target: T4, PDGFRα(V561D)(h) (Homo sapiens, UniProt P16234, V561D); conditions: read-out: Inhibition rate (%)
# T4 construct: purchased Eurofins (KinaseProfiler)
# Protocol: as §1
# [1] = target: T5, PI3 Kinase (p110α/p85α)(h) (Homo sapiens, UniProt P42336); conditions: read-out: Inhibition rate (%)
# T5 construct: purchased Eurofins (KinaseProfiler)
# T5 sequence (P42336 whole entry): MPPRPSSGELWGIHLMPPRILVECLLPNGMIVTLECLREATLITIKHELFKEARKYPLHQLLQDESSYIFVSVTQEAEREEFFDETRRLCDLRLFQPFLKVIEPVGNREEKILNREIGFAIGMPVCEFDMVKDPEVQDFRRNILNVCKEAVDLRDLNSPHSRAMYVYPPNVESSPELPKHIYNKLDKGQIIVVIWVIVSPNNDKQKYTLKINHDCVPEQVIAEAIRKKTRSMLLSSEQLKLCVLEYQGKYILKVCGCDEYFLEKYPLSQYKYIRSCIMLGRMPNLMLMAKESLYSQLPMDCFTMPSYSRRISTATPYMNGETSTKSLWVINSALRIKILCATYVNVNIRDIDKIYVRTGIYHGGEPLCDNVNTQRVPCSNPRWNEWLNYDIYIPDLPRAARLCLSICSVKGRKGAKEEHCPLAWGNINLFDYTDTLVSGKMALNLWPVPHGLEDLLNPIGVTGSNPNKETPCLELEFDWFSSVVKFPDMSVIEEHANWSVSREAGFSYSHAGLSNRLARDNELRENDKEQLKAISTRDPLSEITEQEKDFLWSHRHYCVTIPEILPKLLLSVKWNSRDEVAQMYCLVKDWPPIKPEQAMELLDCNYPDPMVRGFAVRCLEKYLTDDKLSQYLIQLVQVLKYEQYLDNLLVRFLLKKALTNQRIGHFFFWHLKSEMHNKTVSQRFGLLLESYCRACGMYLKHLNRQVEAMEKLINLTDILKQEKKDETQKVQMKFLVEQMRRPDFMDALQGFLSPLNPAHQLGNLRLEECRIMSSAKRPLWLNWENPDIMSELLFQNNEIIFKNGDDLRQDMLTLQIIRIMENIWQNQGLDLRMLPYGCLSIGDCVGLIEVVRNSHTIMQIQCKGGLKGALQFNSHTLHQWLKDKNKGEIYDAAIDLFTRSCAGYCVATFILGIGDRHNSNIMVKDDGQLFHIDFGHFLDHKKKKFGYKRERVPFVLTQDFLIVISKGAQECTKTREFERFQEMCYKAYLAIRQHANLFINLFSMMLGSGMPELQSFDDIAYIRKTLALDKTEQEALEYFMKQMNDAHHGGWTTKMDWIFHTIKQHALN
# T5 sequence (P27986 whole entry partner): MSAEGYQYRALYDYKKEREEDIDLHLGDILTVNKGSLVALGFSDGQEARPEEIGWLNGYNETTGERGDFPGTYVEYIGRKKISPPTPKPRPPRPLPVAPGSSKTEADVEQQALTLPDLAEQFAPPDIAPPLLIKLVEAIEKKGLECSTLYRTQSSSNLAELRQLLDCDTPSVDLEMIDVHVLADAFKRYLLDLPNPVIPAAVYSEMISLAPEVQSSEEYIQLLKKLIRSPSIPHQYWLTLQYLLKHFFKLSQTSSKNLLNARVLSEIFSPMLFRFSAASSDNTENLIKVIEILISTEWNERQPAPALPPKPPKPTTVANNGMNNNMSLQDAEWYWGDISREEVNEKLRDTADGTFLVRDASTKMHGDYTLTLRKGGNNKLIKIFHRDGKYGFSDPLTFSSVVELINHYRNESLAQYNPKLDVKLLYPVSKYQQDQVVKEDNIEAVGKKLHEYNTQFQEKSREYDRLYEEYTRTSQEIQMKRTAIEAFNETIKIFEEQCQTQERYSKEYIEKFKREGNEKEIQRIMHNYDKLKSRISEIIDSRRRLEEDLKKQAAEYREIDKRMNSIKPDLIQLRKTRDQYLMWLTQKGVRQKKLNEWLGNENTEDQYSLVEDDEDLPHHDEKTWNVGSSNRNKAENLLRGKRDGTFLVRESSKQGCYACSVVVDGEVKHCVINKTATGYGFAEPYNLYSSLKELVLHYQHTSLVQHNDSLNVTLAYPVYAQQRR
# Protocol: as §1
# MRCKα(h) = target: T6, MRCKα(h) (Homo sapiens, UniProt Q5VT25); conditions: read-out: Inhibition rate (%)
# T6 construct: purchased Eurofins (KinaseProfiler)
# Protocol: as §1
# TGFBR1(h) = target: T7, TGFBR1(h) (Homo sapiens, UniProt P36897); conditions: read-out: Inhibition rate (%)
# T7 construct: purchased Eurofins (KinaseProfiler)
# T7 sequence (P36897 34-503): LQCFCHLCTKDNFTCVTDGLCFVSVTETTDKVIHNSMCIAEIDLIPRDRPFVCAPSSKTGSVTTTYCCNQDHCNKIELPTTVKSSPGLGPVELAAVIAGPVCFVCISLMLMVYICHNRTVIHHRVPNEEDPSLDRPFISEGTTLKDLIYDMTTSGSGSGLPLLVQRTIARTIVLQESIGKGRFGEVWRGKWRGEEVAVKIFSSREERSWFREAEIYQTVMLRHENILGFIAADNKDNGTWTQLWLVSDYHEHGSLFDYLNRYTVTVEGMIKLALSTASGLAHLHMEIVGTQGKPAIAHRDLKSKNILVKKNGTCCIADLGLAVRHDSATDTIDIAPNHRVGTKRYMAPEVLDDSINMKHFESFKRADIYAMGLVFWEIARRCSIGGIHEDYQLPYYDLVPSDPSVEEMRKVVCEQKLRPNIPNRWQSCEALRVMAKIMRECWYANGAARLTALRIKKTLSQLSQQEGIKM
# Protocol: as §1
# ZAK(h) = target: T8, ZAK(h) (Homo sapiens, UniProt Q9NYL2); conditions: read-out: Inhibition rate (%)
# T8 construct: purchased Eurofins (KinaseProfiler)
# T8 sequence (Q9NYL2 whole entry): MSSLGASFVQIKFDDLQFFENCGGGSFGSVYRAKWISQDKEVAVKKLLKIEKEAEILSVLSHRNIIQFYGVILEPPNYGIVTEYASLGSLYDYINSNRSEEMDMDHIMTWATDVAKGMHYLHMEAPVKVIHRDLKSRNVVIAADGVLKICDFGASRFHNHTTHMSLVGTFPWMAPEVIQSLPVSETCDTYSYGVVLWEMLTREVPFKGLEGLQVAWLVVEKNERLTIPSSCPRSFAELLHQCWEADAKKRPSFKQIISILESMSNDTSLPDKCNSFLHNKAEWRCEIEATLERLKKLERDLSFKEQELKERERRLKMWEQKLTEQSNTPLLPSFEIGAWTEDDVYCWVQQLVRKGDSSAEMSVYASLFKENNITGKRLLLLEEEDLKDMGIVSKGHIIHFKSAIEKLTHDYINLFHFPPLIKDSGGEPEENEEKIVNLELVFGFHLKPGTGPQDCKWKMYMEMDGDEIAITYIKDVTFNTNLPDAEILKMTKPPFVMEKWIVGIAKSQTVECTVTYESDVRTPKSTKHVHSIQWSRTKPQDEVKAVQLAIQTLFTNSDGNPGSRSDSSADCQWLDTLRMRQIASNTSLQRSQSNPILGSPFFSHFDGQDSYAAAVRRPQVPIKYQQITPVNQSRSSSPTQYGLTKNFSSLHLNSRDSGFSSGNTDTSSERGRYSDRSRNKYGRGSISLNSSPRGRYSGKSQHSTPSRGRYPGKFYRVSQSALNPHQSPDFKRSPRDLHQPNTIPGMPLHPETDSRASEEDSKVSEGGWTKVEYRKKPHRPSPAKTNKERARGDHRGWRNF
# Protocol: as §1
# CK1δ(h) = target: T9, CK1δ(h) (Homo sapiens, UniProt P48730); conditions: read-out: Inhibition rate (%)
# T9 construct: purchased Eurofins (KinaseProfiler)
# T9 sequence (P48730 whole entry): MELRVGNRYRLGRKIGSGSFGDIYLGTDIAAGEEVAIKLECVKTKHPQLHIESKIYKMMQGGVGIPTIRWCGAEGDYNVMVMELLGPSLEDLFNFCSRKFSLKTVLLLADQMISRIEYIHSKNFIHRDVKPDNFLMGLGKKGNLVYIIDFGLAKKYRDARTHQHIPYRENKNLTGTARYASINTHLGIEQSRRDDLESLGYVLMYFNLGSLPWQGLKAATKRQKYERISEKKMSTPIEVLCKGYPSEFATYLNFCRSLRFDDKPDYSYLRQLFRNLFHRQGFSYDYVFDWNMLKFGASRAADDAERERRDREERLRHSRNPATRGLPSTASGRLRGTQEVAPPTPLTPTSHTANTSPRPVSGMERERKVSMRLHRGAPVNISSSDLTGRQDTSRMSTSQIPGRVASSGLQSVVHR
# Protocol: as §1
# CDK5/p35(h) = target: T10, CDK5/p35(h) (Homo sapiens, UniProt Q00535); conditions: read-out: Inhibition rate (%)
# T10 construct: purchased Eurofins (KinaseProfiler)
# Protocol: as §1
# Aurora-B(h) = target: T11, Aurora-B(h) (Homo sapiens, UniProt Q96GD4); conditions: read-out: Inhibition rate (%)
# T11 construct: purchased Eurofins (KinaseProfiler)
# T11 sequence (Q96GD4 whole entry): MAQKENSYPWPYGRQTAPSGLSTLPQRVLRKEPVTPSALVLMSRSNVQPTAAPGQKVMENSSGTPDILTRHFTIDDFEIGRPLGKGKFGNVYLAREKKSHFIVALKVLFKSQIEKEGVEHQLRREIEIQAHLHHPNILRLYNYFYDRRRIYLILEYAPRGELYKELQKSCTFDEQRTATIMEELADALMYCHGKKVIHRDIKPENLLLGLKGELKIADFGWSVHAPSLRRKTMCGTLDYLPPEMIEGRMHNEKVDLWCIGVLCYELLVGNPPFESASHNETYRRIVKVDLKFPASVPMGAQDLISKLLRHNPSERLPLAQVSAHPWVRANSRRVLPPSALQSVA
# Protocol: as §1
# EGFR(h) = target: T12, EGFR(h) (Homo sapiens, UniProt P00533); conditions: read-out: Inhibition rate (%)
# T12 construct: purchased Eurofins (KinaseProfiler)
# Protocol: as §1
# PKCα(h) = target: T13, PKCα(h) (Homo sapiens, UniProt P17252); conditions: read-out: Inhibition rate (%)
# T13 construct: purchased Eurofins (KinaseProfiler)
# Protocol: as §1
# FGFR1(h), sequence (P11362 22-822): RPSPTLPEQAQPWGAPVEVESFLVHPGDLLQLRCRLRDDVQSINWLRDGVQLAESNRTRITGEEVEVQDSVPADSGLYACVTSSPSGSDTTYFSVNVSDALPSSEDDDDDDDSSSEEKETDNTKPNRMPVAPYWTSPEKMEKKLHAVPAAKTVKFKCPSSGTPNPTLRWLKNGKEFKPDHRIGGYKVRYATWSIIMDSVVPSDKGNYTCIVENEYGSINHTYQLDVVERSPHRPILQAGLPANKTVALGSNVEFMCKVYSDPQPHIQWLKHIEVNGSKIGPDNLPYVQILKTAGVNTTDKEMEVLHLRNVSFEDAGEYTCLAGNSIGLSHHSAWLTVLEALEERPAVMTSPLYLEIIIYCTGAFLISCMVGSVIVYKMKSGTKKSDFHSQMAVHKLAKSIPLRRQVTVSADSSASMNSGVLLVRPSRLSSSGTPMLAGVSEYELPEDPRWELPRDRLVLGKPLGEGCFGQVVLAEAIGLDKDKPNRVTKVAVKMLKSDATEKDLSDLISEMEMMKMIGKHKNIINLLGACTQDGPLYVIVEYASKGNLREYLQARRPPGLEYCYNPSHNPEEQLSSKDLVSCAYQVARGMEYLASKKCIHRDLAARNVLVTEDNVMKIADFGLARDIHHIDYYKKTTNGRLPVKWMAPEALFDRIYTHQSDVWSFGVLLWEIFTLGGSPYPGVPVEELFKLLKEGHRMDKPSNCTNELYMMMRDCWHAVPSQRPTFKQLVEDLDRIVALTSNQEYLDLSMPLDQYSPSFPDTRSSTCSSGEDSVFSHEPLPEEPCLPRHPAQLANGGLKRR
compound,measurement,setting,value
COc1cc(OC)c(Cl)c(-c2ccc3c(NC(=O)c4ccc(N5CCNC(C)(C)C5)cc4)n[nH]c3n2)c1Cl [3D185],IC50,FGFR1(h); estimated from 372-kinase panel,< 0.01 µM
same,inhibition at 0.01 µM,FGFR1(h); read-out: Inhibition rate (%),99%
same,inhibition at 0.1 µM,FGFR1(h); read-out: Inhibition rate (%),98%
same,inhibition at 1 µM,FGFR1(h); read-out: Inhibition rate (%),100%
same,inhibition at 0.01 µM,PhKγ1(h); 10 nM,-1%
same,inhibition at 0.1 µM,PhKγ1(h); 100 nM,-9%
same,inhibition at 1 µM,PhKγ1(h); 1000 nM,-12%
same,inhibition at 0.01 µM,ZIPK(h); 10 nM,-3%
same,inhibition at 0.1 µM,ZIPK(h); 100 nM,0%
same,inhibition at 1 µM,ZIPK(h); 1000 nM,2%
same,inhibition at 0.01 µM,BrSK1(h); 10 nM,13%
same,inhibition at 0.1 µM,BrSK1(h); 100 nM,11%
same,inhibition at 1 µM,BrSK1(h); 1000 nM,11%
same,inhibition at 0.01 µM,PDGFRα(V561D)(h); 10 nM,5%
same,inhibition at 0.1 µM,PDGFRα(V561D)(h); 100 nM,23%
same,inhibition at 1 µM,PDGFRα(V561D)(h); 1000 nM,57%
same,inhibition at 0.01 µM,[1]; 10 nM,-1%
same,inhibition at 0.1 µM,[1]; 100 nM,1%
same,inhibition at 1 µM,[1]; 1000 nM,2%
same,inhibition at 0.01 µM,MRCKα(h); 10 nM,12%
same,inhibition at 0.1 µM,MRCKα(h); 100 nM,16%
same,inhibition at 1 µM,MRCKα(h); 1000 nM,14%
same,inhibition at 0.01 µM,TGFBR1(h); 10 nM,-15%
same,inhibition at 0.1 µM,TGFBR1(h); 100 nM,-19%
same,inhibition at 1 µM,TGFBR1(h); 1000 nM,-17%
same,inhibition at 0.01 µM,ZAK(h); 10 nM,1%
same,inhibition at 0.1 µM,ZAK(h); 100 nM,-2%
same,inhibition at 1 µM,ZAK(h); 1000 nM,8%
same,inhibition at 0.01 µM,CK1δ(h); 10 nM,-10%
same,inhibition at 0.1 µM,CK1δ(h); 100 nM,0%
same,inhibition at 1 µM,CK1δ(h); 1000 nM,6%
same,inhibition at 0.01 µM,CDK5/p35(h); 10 nM,19%
same,inhibition at 0.1 µM,CDK5/p35(h); 100 nM,17%
same,inhibition at 1 µM,CDK5/p35(h); 1000 nM,12%
same,inhibition at 0.01 µM,Aurora-B(h); 10 nM,7%
same,inhibition at 0.1 µM,Aurora-B(h); 100 nM,-4%
same,inhibition at 1 µM,Aurora-B(h); 1000 nM,5%
same,inhibition at 0.01 µM,EGFR(h); 10 nM,-12%
same,inhibition at 0.1 µM,EGFR(h); 100 nM,-16%
same,inhibition at 1 µM,EGFR(h); 1000 nM,0%
same,inhibition at 0.01 µM,PKCα(h); 10 nM,-1%
same,inhibition at 0.1 µM,PKCα(h); 100 nM,1%
same,inhibition at 1 µM,PKCα(h); 1000 nM,3%
